Consider two compounds from patent publication US20080032998A1, “Pyrazolopyrimidines, a process for their preparation and their use as medicine” (MERZ PHARMA GMBH & CO. KGAA, priority 2006, published 2008).

Structures are written as SMILES.

For assay [1], the target named is T1, transmembrane allosteric modulatory sites of mGluR5 receptors in cortical membranes (Rattus norvegicus, UniProt P31424).
T1 construct: from tissue; host or cells: rat brain cortex membranes (male Sprague-Dawley)
Briefly: [3H]-MPEP binding assay in rat cortical membranes. The settings on record: [3H]-MPEP 5 nM, read-out: mGluR5_MPEP rCTX_IC50. The protocol: Male Sprague-Dawley rats (200-250 g) are decapitated and their brains are removed rapidly. The cortex is dissected and homogenized in 20 volumes of ice-cold 0.32 M sucrose using a glass-Teflon homogenizer. The homogenate is centrifuged at 1000×g for 10 minutes. The pellet is discarded and the supernatant centrifuged at 20,000×g for 20 minutes. The resulting pellet is re-suspended in 20 volumes of distilled water and centrifuged for 20 minutes at 8000×g. Then the supernatant and the buffy coat are centrifuged at 48,000×g for 20 minutes in the presence of 50 mM Tris-HCl, pH 8.0. The pellet is then re-suspended and centrifuged two to three more times at 48,000×g for 20 minutes in the presence of 50 mM Tris-HCl, pH 8.0. All centrifugation steps are carried out at 4° C. After resuspension in 5 volumes of 50 mM Tris-HCl, pH 8.0 the membrane suspension is frozen rapidly at −80° C. […]
Alternatively, assays are performed with [^3H]-MMPEP (2-(3-methoxyphenylethynyl)-6-methylpyridine hydrochloride) as radioligand. […] Following separation and rinse, the filters are placed into scintillation liquid (5 ml Ultima Gold, Perkin Elmer, Germany) and radioactivity retained on the filters is determined with a conventional liquid scintillation counter (Canberra Packard, Germany).

For assay [2], the target named is T2, metabotropic glutamate receptor (mGluR5) (Homo sapiens, UniProt P41594). The experiment in a line: Cytosolic calcium studies with stably transfected cells (FLIPR). It is filed as cell-based. Set-up: expressed in transfected cells; host or cells: CHO-K1 cells (IPTG-inducible expression). The settings on record: CHO-K1 cells with human mGluR5, agonist L-quisqualic acid; read-out: mGluR5_FLIPR_h_CHONAM_IC50. As for the experimental part:
Cytosolic Calcium Studies with Stably Transfected Cells
Chinese hamster ovary cells (CHO-K1 cells), stably transfected for inducible expression of a human metabotropic glutamate receptor mGluR5, are seeded into black clear bottom 96 well plates at a density of 35.000 cells per well. The standard growth medium used (Dulbecco's modified Eagle Medium, DMEM plus L-proline) contains the appropriate inducer isopropyl-β-D-thiogalactopyranosid (IPTG) to achieve optimal receptor expression. One day after seeding the growth medium is exchanged for reconstituted Ca-Kit (Molecular Devices, USA) and incubated for one hour. […] Agonistic compounds to the receptor elicit increases in cytosolic calcium which can be measured as increases in fluorescence signals by use of a fluorescence imaging plate reader (Molecular Devices).
(§1) The fluorescence signal increase after addition of agonist reflects the increase of cytosolic calcium. […] The mean of replicated temporal data (n=3-5) is calculated and used for graphical representation. For the evaluation of the pharmacology, the calcium changes in response to different concentrations of agonist or antagonist are determined using a maximum minus minimum (MaxMin) calculation.
All responses (RFU-values) are determined as percentage of control (=maximum response). […]

For the next assay, the target named is T3, mGluR5 receptors (Rattus norvegicus, UniProt P31424).
T3 construct: endogenous in cells; host or cells: primary astrocytes from neocortex of Sprague-Dawley rat pups
T3 sequence (P31424 21-1203): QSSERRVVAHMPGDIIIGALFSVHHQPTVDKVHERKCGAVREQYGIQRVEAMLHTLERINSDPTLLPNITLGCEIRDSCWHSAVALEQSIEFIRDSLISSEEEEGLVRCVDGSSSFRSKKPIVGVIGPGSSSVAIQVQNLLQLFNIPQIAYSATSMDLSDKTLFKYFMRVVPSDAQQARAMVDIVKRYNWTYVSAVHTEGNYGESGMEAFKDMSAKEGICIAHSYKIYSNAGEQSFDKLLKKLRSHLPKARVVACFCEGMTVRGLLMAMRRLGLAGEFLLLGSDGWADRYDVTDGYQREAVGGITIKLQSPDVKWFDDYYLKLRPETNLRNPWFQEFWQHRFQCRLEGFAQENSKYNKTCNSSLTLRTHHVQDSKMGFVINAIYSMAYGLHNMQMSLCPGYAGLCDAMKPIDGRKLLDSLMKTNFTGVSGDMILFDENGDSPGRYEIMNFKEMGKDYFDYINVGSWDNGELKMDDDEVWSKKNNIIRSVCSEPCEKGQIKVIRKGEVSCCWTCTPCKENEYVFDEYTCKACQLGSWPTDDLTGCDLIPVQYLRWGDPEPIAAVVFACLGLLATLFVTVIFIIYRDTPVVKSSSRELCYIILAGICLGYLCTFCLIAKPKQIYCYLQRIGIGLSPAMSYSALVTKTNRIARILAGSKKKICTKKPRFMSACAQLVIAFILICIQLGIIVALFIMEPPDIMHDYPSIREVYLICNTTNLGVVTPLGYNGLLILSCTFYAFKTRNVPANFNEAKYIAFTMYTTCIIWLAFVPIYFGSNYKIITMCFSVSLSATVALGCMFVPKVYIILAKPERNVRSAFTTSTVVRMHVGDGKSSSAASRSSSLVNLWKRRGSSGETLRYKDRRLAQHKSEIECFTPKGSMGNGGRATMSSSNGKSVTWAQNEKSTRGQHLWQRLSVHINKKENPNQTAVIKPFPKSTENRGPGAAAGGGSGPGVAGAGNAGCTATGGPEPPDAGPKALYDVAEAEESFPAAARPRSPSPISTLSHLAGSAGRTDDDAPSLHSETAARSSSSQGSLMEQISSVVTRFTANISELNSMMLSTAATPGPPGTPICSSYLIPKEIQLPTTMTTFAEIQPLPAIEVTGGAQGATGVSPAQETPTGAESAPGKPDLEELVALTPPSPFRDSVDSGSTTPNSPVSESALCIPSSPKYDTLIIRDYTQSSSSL
The experiment in a line: Cytosolic calcium studies with astrocytes (astrocyte culture test, FLIPR). It is filed as cell-based. The settings on record: rat primary astrocytes, L-quisqualate 100 nM; read-out: mGluR5_FLIPR_r_rpA IC50. The protocol:
Primary astrocyte cultures are prepared from cortices of newborn rats as described by Booher and Sensenbrenner (1972, Neurobiology 2(3):97-105). Briefly, Sprague-Dawley rat pups (2-4 d old) are decapitated and neocortices are dissected, disintegrated with a nylon filter (pore size 80 μm) and carefully triturated. […]
The increase of cytosolic calcium after stimulation with the mGluR5 agonist L-quisqualate is measured using a fluorometric imaging plate reader (FLIPR) and the Ca-Kit (both Molecular Devices). […] Subsequently, plates are transferred to FLIPR to detect calcium increase with the addition of L-quisqualate (100 nM) measured as relative fluorescence units (RFU). […]
as §1
All responses (RFU-values) are determined as percentage of control (=maximum response). EC50 and IC50 are calculated according the logistic equation using GraFit 5.0 (Erithacus Software, GB) or Prism 4.0 (GraphPad Software, USA).

Assay [3] concerns the target T2, metabotropic glutamate receptor (mGluR5). Briefly: Activity as mGluR5 modulator (prior-art compounds, method not given).

T2 sequence (P41594 21-1212): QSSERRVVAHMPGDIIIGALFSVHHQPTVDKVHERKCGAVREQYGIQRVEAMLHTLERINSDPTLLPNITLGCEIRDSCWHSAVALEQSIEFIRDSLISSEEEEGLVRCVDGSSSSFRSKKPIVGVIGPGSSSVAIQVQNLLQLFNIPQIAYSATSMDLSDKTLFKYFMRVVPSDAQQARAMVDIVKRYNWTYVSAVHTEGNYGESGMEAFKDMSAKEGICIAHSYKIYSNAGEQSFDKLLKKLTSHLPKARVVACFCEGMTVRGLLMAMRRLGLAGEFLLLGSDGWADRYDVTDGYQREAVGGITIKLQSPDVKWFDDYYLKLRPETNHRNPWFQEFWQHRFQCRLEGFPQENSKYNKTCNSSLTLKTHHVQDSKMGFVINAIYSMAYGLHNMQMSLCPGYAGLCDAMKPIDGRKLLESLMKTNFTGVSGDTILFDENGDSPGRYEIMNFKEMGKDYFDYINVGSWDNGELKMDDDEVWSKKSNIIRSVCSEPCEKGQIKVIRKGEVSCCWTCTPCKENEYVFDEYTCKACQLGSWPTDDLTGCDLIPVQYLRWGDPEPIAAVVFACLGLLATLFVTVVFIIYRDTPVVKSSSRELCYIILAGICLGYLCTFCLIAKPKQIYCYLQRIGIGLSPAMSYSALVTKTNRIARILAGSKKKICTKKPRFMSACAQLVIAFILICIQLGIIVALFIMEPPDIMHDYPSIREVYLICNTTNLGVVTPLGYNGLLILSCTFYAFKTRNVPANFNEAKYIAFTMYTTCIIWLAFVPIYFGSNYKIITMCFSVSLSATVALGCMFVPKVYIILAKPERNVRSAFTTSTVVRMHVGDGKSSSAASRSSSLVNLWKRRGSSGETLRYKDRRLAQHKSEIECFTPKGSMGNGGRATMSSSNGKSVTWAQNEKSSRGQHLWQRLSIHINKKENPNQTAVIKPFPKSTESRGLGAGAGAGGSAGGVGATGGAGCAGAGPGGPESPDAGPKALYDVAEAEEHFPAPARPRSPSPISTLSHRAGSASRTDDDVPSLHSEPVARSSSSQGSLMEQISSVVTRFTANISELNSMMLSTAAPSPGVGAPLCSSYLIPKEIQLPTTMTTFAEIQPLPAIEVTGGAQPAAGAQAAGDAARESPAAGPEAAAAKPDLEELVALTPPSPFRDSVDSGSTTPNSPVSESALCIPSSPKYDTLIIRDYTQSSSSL
T1 sequence (P31424 21-1203): as the sequence (P31424 21-1203) above

Turning to `O=C(c1cc2ncc(Br)cn2n1)N1CC=C(c2ccccc2)CC1` [Example 1, (6-Bromo-pyrazolo[1,5-a]pyrimidin-2-yl)-(4-phenyl-3,6-dihydro-2H-pyridin-1-yl)-methanone], the IC50 in assay [1] worked out at 0.25 µM; in assay [2], 0.493 µM; on mGluR5 receptors, 0.08 µM.
As for `O=C(c1cc2ncc(Br)cn2n1)N1CCc2ccccc2C1` [M, (6-Bromo-pyrazolo[1,5-a]pyrimidin-2-yl)-(1,2,3,4-tetrahydro-isoquinolin-2-yl)-methanon], in assay [3], the “activity as metabotropic glutamate receptor (mGluR5) modulator” value is on record as “only a limited activity” and the selectivity entry is “not selective”.
